The term IC50 denotes the concentration that gives 50% inhibition. Higher therefore signals weaker potency in that assay.

The target in this experiment is DNA gyrase (Escherichia coli, UniProt P0AES4+P0AES6). Description: Inhibition of Escherichia coli DNA gyrase supercoiling using relaxed pNO1 as substrate measured after 30 mins by SybrGOLD staining based fluorescence analysis. Format: protein-complex assay.
Consider `CC(=O)Nc1ccc2c(c1)s/c(=N\C(=O)c1[nH]c(C)c(Cl)c1Cl)n2Cc1ccc(C(=O)O)cc1`, for which the IC50 worked out at 600 nM.

Regarding `CC(=O)Nc1ccc2c(c1)s/c(=N\C(=O)c1[nH]c(C)c(Cl)c1Cl)n2Cc1ccccc1`, the IC50 was determined as 5800 nM.

In the case of `Cc1[nH]c(C(=O)N(CCc2ccccc2)c2nc3ccc(NC(=O)C(=O)O)cc3s2)c(Cl)c1Cl`, the IC50 was 2200 nM.

The molecule `Cc1[nH]c(C(=O)/N=c2\sc3cc(NC(=O)C(=O)O)ccc3n2CCc2ccccc2)c(Cl)c1Cl` displayed an IC50 of 100 nM.

`Cc1[nH]c(C(=O)/N=c2\sc3cc(NC(=O)C(=O)O)ccc3n2Cc2cccc(C(=O)O)c2)c(Cl)c1Cl` registered an IC50 of 13 nM.

In turn, `CC(=O)Nc1ccc2nc(N(Cc3cccc(C(=O)O)c3)C(=O)c3[nH]c(C)c(Cl)c3Cl)sc2c1` yielded an IC50 of 54000 nM.

`Cc1[nH]c(C(=O)/N=c2\sc3cc(NC(=O)C(=O)O)ccc3n2Cc2ccc(C(=O)O)cc2)c(Cl)c1Cl` came in with an IC50 of 320 nM.

`CC(=O)Nc1ccc2nc(N(Cc3ccc(C(=O)O)cc3)C(=O)c3[nH]c(C)c(Cl)c3Cl)sc2c1` registered an IC50 of 35000 nM.

`CC(=O)Nc1ccc2nc(N(CCc3ccccc3)C(=O)c3[nH]c(C)c(Cl)c3Cl)sc2c1` had an IC50 of 162000 nM.

For `Cc1[nH]c(C(=O)N(Cc2ccc(C(=O)O)cc2)c2nc3ccc(NC(=O)C(=O)O)cc3s2)c(Cl)c1Cl`, 1000 nM corresponded to half-maximal inhibition (IC50).

In turn, `CC(=O)Nc1ccc2nc(N(Cc3ccccc3)C(=O)c3[nH]c(C)c(Cl)c3Cl)sc2c1` yielded an IC50 of 90000 nM.

For the molecule `CC(=O)Nc1ccc2c(c1)s/c(=N\C(=O)c1[nH]c(C)c(Cl)c1Cl)n2CCc1ccccc1`, the IC50 is 620 nM.

The molecule `CC(=O)Nc1ccc2c(c1)s/c(=N\C(=O)c1[nH]c(C)c(Cl)c1Cl)n2Cc1cccc(C(=O)O)c1` gave an IC50 of 100 nM.

In the case of `Cc1[nH]c(C(=O)N(Cc2cccc(C(=O)O)c2)c2nc3ccc(NC(=O)C(=O)O)cc3s2)c(Cl)c1Cl`, the midpoint of inhibition, the IC50, lay at 2800 nM.

With `Cc1[nH]c(C(=O)N(Cc2ccccc2)c2nc3ccc(NC(=O)C(=O)O)cc3s2)c(Cl)c1Cl`, half-maximal inhibition (IC50) required 43 nM.

In turn, `Cc1[nH]c(C(=O)/N=c2\sc3cc(NC(=O)C(=O)O)ccc3n2Cc2ccccc2)c(Cl)c1Cl` came in with an IC50 of 18 nM.
